Assay results published in patent US20250382297A1, “INHIBITORS OF FGFR2 AND FGFR3 AND USES THEREOF” (Insilico Medicine IP Limited, priority 2022, published 2025).
Read-outs that look alike come from different tables or passages of the source.

How the values were obtained:
FGFR1 = FGFR1 (Homo sapiens (Human), UniProt P11362); experiment: FGFR biochemical assay (LanthaScreen TR-FRET kinase assay), FGFR1
Protocol: (§1) Convert Ratio values to percent inhibition values (Percent inhibition=(max−sample Ratio)/(max−min)*100) where “min” means the Ratio of no enzyme control and “max” means the Ratio of DMSO control. • Data are analyzed and curve fitting is performed by XLFit Excel add-in version 5.4.0.8. The IC50 calculation equation is: Y=Bottom+(Top-Bottom)/(1+ (IC50/X)^HillSlope.

FGFR2 = FGFR2 (Homo sapiens (Human), UniProt P21802); experiment: FGFR biochemical assay (LanthaScreen TR-FRET kinase assay), FGFR2
FGFR2, sequence (P21802 22-821): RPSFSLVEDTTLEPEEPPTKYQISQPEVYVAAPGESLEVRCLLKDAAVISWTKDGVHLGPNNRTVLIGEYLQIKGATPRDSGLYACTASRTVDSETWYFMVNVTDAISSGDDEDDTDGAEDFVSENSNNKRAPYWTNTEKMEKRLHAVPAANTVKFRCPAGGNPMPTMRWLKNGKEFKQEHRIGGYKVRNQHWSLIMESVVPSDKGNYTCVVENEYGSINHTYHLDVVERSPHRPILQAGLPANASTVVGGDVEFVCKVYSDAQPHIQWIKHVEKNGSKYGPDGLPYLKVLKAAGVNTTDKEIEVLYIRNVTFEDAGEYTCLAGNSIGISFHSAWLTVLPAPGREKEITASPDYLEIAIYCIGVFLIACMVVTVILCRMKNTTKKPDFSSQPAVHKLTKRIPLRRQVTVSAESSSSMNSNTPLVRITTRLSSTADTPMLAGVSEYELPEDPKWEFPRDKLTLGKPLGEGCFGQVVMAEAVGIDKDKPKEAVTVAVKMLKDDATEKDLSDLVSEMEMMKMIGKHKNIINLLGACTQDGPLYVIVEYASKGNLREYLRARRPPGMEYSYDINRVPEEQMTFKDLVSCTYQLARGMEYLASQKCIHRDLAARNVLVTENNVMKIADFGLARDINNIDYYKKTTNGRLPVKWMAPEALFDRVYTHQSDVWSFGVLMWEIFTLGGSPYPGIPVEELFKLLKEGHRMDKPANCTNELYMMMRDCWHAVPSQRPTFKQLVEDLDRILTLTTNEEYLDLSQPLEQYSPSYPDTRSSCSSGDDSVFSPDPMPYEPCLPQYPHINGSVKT
Protocol: as §1

FGFR3 = FGFR3 (Homo sapiens (Human), UniProt P22607); experiment: FGFR biochemical assay (LanthaScreen TR-FRET kinase assay), FGFR3
FGFR3, sequence (P22607 23-806): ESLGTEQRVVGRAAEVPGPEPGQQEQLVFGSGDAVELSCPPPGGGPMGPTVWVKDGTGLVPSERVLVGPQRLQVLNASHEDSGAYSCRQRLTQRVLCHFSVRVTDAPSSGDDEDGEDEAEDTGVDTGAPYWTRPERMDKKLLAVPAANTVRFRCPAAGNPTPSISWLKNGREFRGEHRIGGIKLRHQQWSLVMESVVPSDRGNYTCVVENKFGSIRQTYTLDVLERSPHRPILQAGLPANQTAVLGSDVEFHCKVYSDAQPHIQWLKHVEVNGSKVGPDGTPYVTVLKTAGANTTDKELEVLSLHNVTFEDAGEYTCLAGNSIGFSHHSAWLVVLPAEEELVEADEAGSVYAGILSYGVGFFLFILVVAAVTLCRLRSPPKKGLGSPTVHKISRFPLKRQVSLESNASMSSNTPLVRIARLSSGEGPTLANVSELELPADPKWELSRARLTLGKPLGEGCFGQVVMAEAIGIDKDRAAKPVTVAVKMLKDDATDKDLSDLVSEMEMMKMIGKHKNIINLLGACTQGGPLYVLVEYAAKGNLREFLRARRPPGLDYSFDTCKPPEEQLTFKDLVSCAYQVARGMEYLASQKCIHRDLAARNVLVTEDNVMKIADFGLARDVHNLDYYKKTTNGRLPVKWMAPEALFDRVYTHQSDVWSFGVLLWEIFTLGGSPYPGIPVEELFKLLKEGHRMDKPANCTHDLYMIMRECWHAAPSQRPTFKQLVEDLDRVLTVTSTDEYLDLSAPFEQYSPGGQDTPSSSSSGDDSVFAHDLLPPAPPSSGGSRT
Protocol: as §1

FGFR4 = FGFR4 (Homo sapiens (Human), UniProt P22455); experiment: FGFR biochemical assay (LanthaScreen TR-FRET kinase assay), FGFR4
FGFR4, sequence (P22455 22-802): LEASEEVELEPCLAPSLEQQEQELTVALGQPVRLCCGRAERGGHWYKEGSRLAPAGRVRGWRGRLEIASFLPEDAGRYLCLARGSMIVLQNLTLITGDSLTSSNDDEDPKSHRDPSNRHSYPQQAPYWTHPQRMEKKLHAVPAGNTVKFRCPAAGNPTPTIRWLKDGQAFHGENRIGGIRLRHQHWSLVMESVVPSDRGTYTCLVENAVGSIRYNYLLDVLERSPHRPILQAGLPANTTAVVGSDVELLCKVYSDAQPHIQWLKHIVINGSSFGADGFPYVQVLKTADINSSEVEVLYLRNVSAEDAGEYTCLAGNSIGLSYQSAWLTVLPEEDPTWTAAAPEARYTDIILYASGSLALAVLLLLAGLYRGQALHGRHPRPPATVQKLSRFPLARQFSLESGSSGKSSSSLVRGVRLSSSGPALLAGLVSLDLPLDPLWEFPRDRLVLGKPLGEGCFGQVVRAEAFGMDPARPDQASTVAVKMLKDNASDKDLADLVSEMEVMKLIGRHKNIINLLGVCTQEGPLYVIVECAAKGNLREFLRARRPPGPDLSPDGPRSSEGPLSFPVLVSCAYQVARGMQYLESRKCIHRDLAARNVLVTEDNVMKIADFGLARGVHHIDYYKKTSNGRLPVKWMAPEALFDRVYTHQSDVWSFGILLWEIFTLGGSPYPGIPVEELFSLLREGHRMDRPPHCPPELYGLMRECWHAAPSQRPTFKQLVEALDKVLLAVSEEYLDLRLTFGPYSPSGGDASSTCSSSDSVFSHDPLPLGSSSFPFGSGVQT
Protocol: as §1

[1] = read-out: FGFR2 IC50, incubation with enzyme at room temperature for 10 minutes before substrate, ATP 22 μM, FGFR2 0.01 nM

FGFR1, sequence (P11362 22-822): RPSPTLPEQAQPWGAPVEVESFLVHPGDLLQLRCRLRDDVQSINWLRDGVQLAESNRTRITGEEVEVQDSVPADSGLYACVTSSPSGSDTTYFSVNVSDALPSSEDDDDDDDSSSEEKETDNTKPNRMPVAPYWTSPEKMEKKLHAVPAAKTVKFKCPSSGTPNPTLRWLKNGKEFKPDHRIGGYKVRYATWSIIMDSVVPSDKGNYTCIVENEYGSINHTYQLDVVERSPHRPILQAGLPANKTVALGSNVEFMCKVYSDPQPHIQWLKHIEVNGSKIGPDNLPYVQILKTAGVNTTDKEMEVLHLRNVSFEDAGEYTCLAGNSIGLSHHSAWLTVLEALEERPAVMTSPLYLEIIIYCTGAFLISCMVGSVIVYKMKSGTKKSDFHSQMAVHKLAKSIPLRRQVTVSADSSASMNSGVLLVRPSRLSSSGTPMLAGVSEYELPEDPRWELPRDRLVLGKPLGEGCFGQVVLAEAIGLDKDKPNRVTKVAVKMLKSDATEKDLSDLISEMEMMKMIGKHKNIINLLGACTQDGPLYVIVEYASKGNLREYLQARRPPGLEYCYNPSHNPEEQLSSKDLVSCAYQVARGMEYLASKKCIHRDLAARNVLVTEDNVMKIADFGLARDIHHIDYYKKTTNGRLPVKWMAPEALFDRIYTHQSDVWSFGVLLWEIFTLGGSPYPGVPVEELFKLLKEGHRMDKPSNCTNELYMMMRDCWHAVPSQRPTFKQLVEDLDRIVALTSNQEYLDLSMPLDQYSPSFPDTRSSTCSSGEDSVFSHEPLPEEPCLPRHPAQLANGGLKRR

Compound	IC50 (FGFR1)	IC50 (FGFR2)	IC50 (FGFR3)	IC50 (FGFR4; read-out: FGFR4 IC50, incubation with enzyme at room temperature for 10 minutes before substrate, ATP 238 μM, FGFR4 1 nM)	IC50 (FGFR2; [1])	IC50 (FGFR4)
C=CC(=O)Nc1ccc(-c2c(-c3ccc(Oc4cccc(C)n4)cc3)c(C(N)=O)c3n2CCN(C)C3)cc1 [Example 13, 6-(4-acrylamidophenyl)-2-methyl-7-(4-((6-methylpyridin-2-yl)oxy)phenyl)-1,2,3,4-tetrahydropyrrolo[1,2-a]pyrazine-8-carboxamide]	100 to 1000 nM	10 to 100 nM	100 to 1000 nM	> 1000 nM		
C=CC(=O)Nc1ccc(-c2c(-c3ccc(Oc4cccc(C)n4)cc3)c(C(N)=O)c3cnc(CO)cn23)cc1 [Example 11, 6-(4-acrylamidophenyl)-3-(hydroxymethyl)-7-(4-((6-methylpyridin-2-yl)oxy)phenyl)pyrrolo[1,2-a]pyrazine-8-carboxamide]	100 to 1000 nM		10 to 100 nM		< 10 nM	100 to 1000 nM
C=CC(=O)Nc1ccc(-c2c(-c3ccc(Oc4cccc(C)n4)cc3)c(C(N)=O)c3cncc(C)n23)cc1 [Example 5, 6-(4-acrylamidophenyl)-4-methyl-7-(4-((6-methylpyridin-2-yl)oxy)phenyl)pyrrolo[1,2-a]pyrazine-8-carboxamide]	100 to 1000 nM		10 to 100 nM		< 10 nM	100 to 1000 nM
C=CC(=O)Nc1ccc(-c2c(-c3ccc(Oc4cccc(C)n4)cc3)c(C(N)=O)c3cnc(C)cn23)cc1 [Example 7, 6-(4-acrylamidophenyl)-3-methyl-7-(4-((6-methylpyridin-2-yl)oxy)phenyl)pyrrolo[1,2-a]pyrazine-8-carboxamide]	100 to 1000 nM		10 to 100 nM		< 10 nM	100 to 1000 nM
